A short description of the series: logP determination by HPLC on a reversed-phase column (C 18), EEC Directive 79/831 Annex V.A8. Type of series: physicochemical. How it is done:
The stated logP values were determined in accordance with EEC Directive 79/831 Annex V.A8 by HPLC (high performance liquid chromatography) on a reversed-phase column (C 18). Temperature: 43° C.

The mark [1] stands for this setting: method marker [b], isomer A / isomer B / isomer mixture as noted in the cell.
[2] abbreviates: method marker [a] (footnote not shown), isomer A / isomer B / isomer mixture as noted in the cell.

Consider `C/C(=N\OCC1(CON)CC1)c1cccc(C)n1` [XII-13], for which the logP by setting is: ([a] acidic range, pH 2.3, 0.1% aqueous phosphoric acid and acetonitrile) 0.78^[a]; ([b] LC-MS, acidic range, pH 2.7, 0.1% aqueous formic acid and acetonitrile) 0.78^[b]; ([c] LC-MS, neutral range, pH 7.8, 0.001 molar aqueous ammonium bicarbonate solution and acetonitrile) 2.11^[c]. In the case of `CC(=NOCC(C)(C)CON=C(C)c1ccc(C)c(C)n1)c1cccc(C)n1` [Compound 799], the logP is 4.96^[a] (value marked [a]), 4.96^[b] (value marked [b]) and 6.34^[c] (value marked [c]). For `C=C(CON=C(C)c1ncc(C(F)(F)F)cc1Cl)CON=C(C)c1ncc(C(F)(F)F)cc1Cl` [compound 149], the logP under setting [1] was 5.82^[b]. Still for that read-out and setting: as for `Cc1cc(C)nc(C(N)=NOCCCCON=C(N)c2cc(C)cc(C)n2)c1` [compound 123], the figure is 2.67^[b]. In the case of `CC(=NOCC(C)CON=C(C)c1cccc(C(F)(F)F)n1)c1cccc(C(F)(F)F)n1` (stereo not drawn) [Compound 169], the logP under setting [2] was 6.41^[a]. Regarding `CC(=NOCCCCON=C(C)c1cccc(C)n1)c1ccnc(C)c1` [compound 338], where the note is “value marked [b]”, the logP is 1.71^[b]. Take `CCC(=NOCC1(CON=C(CC)c2cccc(C)n2)CC(C(C)C)=NO1)c1cccc(C)n1` (stereo not drawn) [compound 606]: where the note is “method marked [b] in Table 1”, the logP was 4.67^[b].

Take `CC(=NOCC(CON=C(C)c1cc(C)cc(C)n1)Cc1ccccc1)c1cc(C)cc(C)n1` (stereo not drawn) [Compound 582]: the logP by setting is: (method marked [b] in Table 1) 3.62^[b]; (method marked [c] in Table 1) 6.97^[c]. Turning to `C=C(CON=C(C)c1ncc(Cl)cc1Cl)CON=C(C)c1ncc(Cl)cc1Cl` [compound 153], the logP under setting [1] was 5.75^[b]. Still for that read-out and setting: as for `C=C(CON=C(C)c1ccc(C(F)(F)F)cn1)CON=C(C)c1ccc(C(F)(F)F)cn1` [Compound 61], the figure is 6.18^[b].

Turning to `COC(CON=C(C)c1cccc(C)n1)CON=C(C)c1cccc(C)n1` (stereo not drawn) [Compound 294], the logP (value marked [b]) is 2.22^[b]. As for `CC(=NOC[Si](C)(C)CON=C(C)c1cccc(C)n1)c1cccc(C)n1` [Compound 292], the logP (value marked [a]) is 4.50^[a].

Take `Cc1cccc(C(=NOCCON=C(c2cccc(C)n2)C(C)C)C(C)C)n1` (mixture of isomers) [compound 288]: the logP (value marked [a]) was 4.03^[a]. On to `CCCC1=NOC(CON=C(C)c2cccc(C)n2)(CON=C(C)c2cccc(C)n2)C1` (stereo not drawn) [compound 598], for which the logP (method marked [b] in Table 1) is 3.33^[b]. As to `CC(=NOCCON=C(C)c1cccnc1)c1cccnc1` [Compound 32], the logP under setting [1] is 1.32^[b].

Consider `CC(=NOCC(C)CON=C(C)c1cc(Cl)cc(C)n1)c1cccc(C)n1` (stereo not drawn) [compound 877], for which the logP is 6.58^[a] (value marked [a]), 6.58^[b] (value marked [b]) and 7.36^[c] (value marked [c]). On to `C=C(CON=C(C)c1cccc(C)n1)CON=C(N)c1ncc(Cl)cc1Cl` [compound 246], for which the logP under setting [1] is 3.00^[b].

In the case of `C=C(CON=C(C)c1cccc(C)n1)CON=C(N)c1nc(C)c(C)c(C)n1` [compound 191], under setting [1], the logP is 2.13^[b].

`C=C(CON=C(C)c1ccnc(C)c1)CON=C(C)c1cccc(C)n1` (single isomer, unassigned) [compound 533]: for the setting “value marked [b]”, the logP was 1.74^[b] (isomer A). As to `CC(=NOCCCCCCON=C(C)c1nc(C)c(C)s1)c1cccc(C)n1` (single isomer, unassigned) [compound 539], the logP (method marked [b] in Table 1) is 4.86^[b] v(isomer B). For the molecule `COc1cccc(C(C)=NOCC(C)(C)CON=C(C)c2cccc(C)n2)c1` [compound 484], the logP (value marked [b]) was 5.31^[b].

As for `CCC(=NOCC1(CON=C(CC)c2cccc(C)n2)CC(c2cccc(Cl)c2)=NO1)c1cccc(C)n1` (stereo not drawn) [compound 613], the logP (method marked [b] in Table 1) was 5.84^[b]. `CC(=NOCC(C)CON=C(C)c1cccnc1C)c1cccc(C)n1` (stereo not drawn) [compound 500]: the logP (value marked [b]) is 1.85^[b]. Turning to `CC(=NOCC(C)(C)CON=C(C)c1csc(C)n1)c1csc(C)n1` [compound 518], the logP is, setting by setting: (value marked [a]) 3.99^[a]; (value marked [b]) 3.99^[b]. Regarding `CC(=NOCC(C)CON=C(C)c1cccc(C)n1)c1ccc(Cl)cc1` (stereo not drawn) [compound 496], under “value marked [b]”, the logP is 5.78^[b]. On to `CC(=NOCCC(C)ON=C(C)c1ccc(C)c(C)n1)c1ccc(C)c(C)n1` (stereo not drawn) [Compound 519], for which the logP (value marked [b]) was 2.75^[b] and the logP (value marked [c]) was 6.27^[c]. As to `CC(=NOC1CCCC(ON=C(C)c2cccc(C)n2)C1)c1cccc(C)n1` (mixture of isomers) [compound 801], the logP (value marked [a]) is 4.96^[a]. As to `CCC1=NOC(CON=C(C)c2ccc(C)c(C)n2)(CON=C(C)c2ccc(C)c(C)n2)C1` (stereo not drawn) [compound 628], the logP (method marked [b] in Table 1) was 2.51^[b]. Turning to `C=C(CON=C(C)c1cccc(C)n1)CON=C(C)c1ncc(Cl)cc1Cl` [compound 194], the logP under setting [1] is reported as 4.72^b].

For `CC(=NOCC1(CON=C(C)c2cc(C)cc(C)n2)COC(=O)N1)c1cc(C)cc(C)n1` (stereo not drawn) [compound 858], the logP was 1.43^[b] (value marked [b]) and 3,55^[c] (value marked [c]). As to `CC(=NOCC(C)CON=C(C)c1cc(C)c(C)nn1)c1cc(C)c(C)nn1` (stereo not drawn) [compound 309], the logP (value marked [b]) was 2.58^[b]. With `CCCC(=NOCC1(CON=C(CCC)c2cccc(C)n2)CC(c2cccc(Cl)c2)=NO1)c1cccc(C)n1` (stereo not drawn) [compound 624], the logP (method marked [b] in Table 1) was 6.58^[b]. `C=C(CON=C(C)c1ccc2ccccc2c1)CON=C(C)c1cccc(C)n1` [compound 472]: the logP (value marked [b]) was 5.48^[b]. As to `C=C(CON=C(C)c1cc(C(=O)OC)cc(C)n1)CON=C(C)c1cc(C(=O)OC)cc(C)n1` [compound 178], under setting [1], the logP is 5.46^[b].

As for `C=C(CON=C(C)c1ccccn1)CON=C(C)c1cccc(C)n1` (single isomer, unassigned) [Compound 17], the logP under setting [1] is 3.10^[b] (isomer A). In the case of `CC(=NOCC(C)(C)CON=C(C)c1cccc(C)n1)c1ccc(C)nc1` [Compound 416], under “value marked [b]”, the logP is 2.41^[b]. With `C=C(CON=Cc1cccc(C)n1)CON=Cc1cccc(C)n1` (single isomer, unassigned) [compound 662], where the note is “method marked [b] in Table 1”, the logP was 2.16^[b] (isomer B). Take `CC(=NOCCCON=C(C)c1cccc(Br)n1)c1cccc(Br)n1` [compound 80]: the logP under setting [2] is 5.99^[a].

As to `Cc1nc(/C(N)=N/OCc2ccccc2CO/N=C(\N)c2nc(C)c3c(n2)CCCC3)nc2c1CCCC2` [compound 707], for the setting “method marked [b] in Table 1”, the logP is 3.25^[b]. As for `CC(=NOCC(C)(O)CON=C(C)c1cccc(C)n1)c1cccc(C)n1` (stereo not drawn) [Compound 12], the logP under setting [2] was 1.66^[a]. On to `CC(=NOCC1(CON=C(C)c2nc(C)ccc2C)CCCC1)c1nc(C)ccc1C` (single isomer, unassigned) [compound 762], for which the logP was 3.04^[b] (value marked [b]) and 5.14^[c] (value marked [c]). Turning to `Cc1cccc(C=NOCCCON=Cc2cccc(C)n2)n1` [Compound 669], where the note is “method marked [b] in Table 1”, the logP is 2.54^[b]. Consider `CC(=NOCC(CON=C(C)c1nc(C)ccc1C)C(C)(C)C)c1nc(C)ccc1C` (single isomer, unassigned) [compound 756], for which the logP by setting is: (method marked [b] in Table 1) 3.22^[b]; (method marked [c] in Table 1) 5.20^[c].

Take `CC(=O)OCC#Cc1cc(C)nc(C(C)=NOCC(C)CON=C(C)c2cc(C#CCOC(C)=O)cc(C)n2)c1` (stereo not drawn) [compound 875]: the logP runs as follows: (value marked [a]) 6.25^[a]; (value marked [b]) 6.25^[b]; (value marked [c]) 6.31^[c]. With `CON=C(CON=C(C)c1cccc(C)n1)CON=C(C)c1cccc(C)n1` [compound 113], under setting [1], the logP was 3.26^[b]. On to `CC(=NOCC(C)CON=C(C)c1cccc(CC(C)C)n1)c1cccc(CC(C)C)n1` (stereo not drawn) [compound 172], for which the logP under setting [2] is 7.36^[a].

The values are drawn from patent US20100022559A1, “BISOXIMES AS FUNGICIDES” (BAYER CROPSCIENCE AG, priority 2006, published 2010).
